# Measured values taken from patent US11541061B2, “Neuroblastoma treatment with taurolidine hydrolysis products” (CorMedix Inc., priority 2016, dated 2023).
# Key:
# [1] = mean pharmacokinetic parameters of taurinamide and taurultam (FIGS. 10, 11); conditions: in vivo; mean pharmacokinetic parameter, weight-based AUC
# Experimental: FIG. 10 is a chart showing the mean pharmacokinetic parameters of taurinamide; and
# FIG. 11 is a chart showing the mean pharmacokinetic parameters of taurultam.
# The taurinamide is given with a dosage range of from 5 mg/kg to 280 mg/kg, with optimal range between 5 mg/kg and 60 mg/kg, from once daily through weekly, for an effective period of time based on individual patient response.
# The taurultam is given with a dosage range of from 5 mg/kg to 280 mg/kg, with optimal range between 5 mg/kg and 60 mg/kg, from once daily through weekly, for an effective period of time based on individual patient response.
# IMR5 tumors = experiment: IMR5 neuroblastoma tumors implanted subcutaneously in mice (FIGS. 3-6); assay type: in vivo; conditions: IMR5 tumors implanted subcutaneously in CB57 SCID mice
# Text: The efficacy observed with taurolidine treatment of IMR5 cell implants in vivo (FIGS. 3-6), despite IRM5's relatively high IC50 in vitro (FIG. 2), supports the conclusion that the hydrolysis products of taurolidine may have independent anti-neoplastic activity. […] Since it is known that taurolidine metabolizes to taurolidine hydrolysis products in vivo, this would support the conclusion that the hydrolysis products of taurolidine may have significant anti-neoplastic activity against neuroblastoma cells. In fact, it may be that the hydrolysis products of taurolidine have higher efficacy against neuroblastoma cells than taurolidine which has not been hydrolyzed.
# leukemia cell lines = experiment: in vitro sensitivity of leukemia cell lines compared to healthy lymphocytes (FIG. 1); assay type: cell-based; conditions: leukemia cell lines vs healthy lymphocytes
# [2] = 5 grams intravenously by 20 minute infusion; cited from earlier work
# SK-N-AS tumors = experiment: SK-N-AS neuroblastoma tumors implanted subcutaneously in mice (FIGS. 3-8); assay type: in vivo, CB57 SCID mice
# healthy fibroblasts (BJ) = experiment: in vitro cell viability of healthy fibroblasts (FIG. 2); assay type: cell-based; conditions: Fibroblast, normal fibroblasts
# Text: (§1) The IC50 values are between 80-140 microMolar for neuroblastoma cell lines, and 200 microMolar for normal fibroblasts (see FIG. 2).
# neuroblastoma cell lines = experiment: in vitro cell viability of neuroblastoma cell lines (FIG. 2); assay type: cell-based
# Text: as §1
SMILES,AUC(0-inf) [1],efficacy in tumors in vivo (IMR5 tumors),sensitivity compared to healthy lymphocytes (leukemia cell lines),concentration of taurolidine in healthy volunteers [2],efficacy in tumors in vivo (SK-N-AS tumors; SK-N-AS tumors implanted subcutaneously in CB57 SCID mice),"overall survival (SK-N-AS tumors; mice implanted with SK-N-AS tumor, vs control)","tumor size (SK-N-AS tumors; mice with SK-N-AS cell line tumors, vs control)",IC50 (healthy fibroblasts (BJ)),"sensitivity to decrease in viability compared to healthy fibroblasts (neuroblastoma cell lines; neuroblastoma cell lines vs healthy fibroblasts (BJ), in vitro)","IC50 (neuroblastoma cell lines; neuroblastoma cell lines, cell viability in vitro, FIG. 2)","concentration at which in vitro efficacy is seen (neuroblastoma cell lines; neuroblastoma cell lines, highest two concentrations tested, FIG. 2)"
"NCCS(N)(=O)=O [Taurinamide, taurinamide]",313 µg·h/mL,–,–,–,–,–,–,–,–,–,–
O=S1(=O)CCN(CN2CCS(=O)(=O)NC2)CN1 [taurolidine],–,efficacy,more sensitive,NO measurable concentration,measurable efficacy,not statistically different,Statistically significant decreases,200 µM,more sensitive,80 to 140 µM,above 40 microMolar
